Test results as given in patent US7504384B2 (priority 2000, dated 2009).
Where “and” joins values, the source holds several entries; their conditions need not be identical. Equal values may be shown once. Read-outs that look alike come from different tables or passages of the source.

Legend:
[1] = test system: HIV; experiment: HIV infectivity of supernatant from whole blood mixed with HIV, on HT4-1022 cells; assay type: cell-based; conditions: whole blood mixed with HIV and Lipid-conjugate (50 μM Compound XXIV, 30 μM Compound XXII) for 30 min; FIG. 1.1
Source text: The cells were then spun and the supernatant was examined for HIV infectivity on HT4-1022 cells as described by Margolis-Nunno et al. (Transfusion, 36, 743-750, 1996).

[2] = test system: HIV-1IIIB; experiment: Inhibition of p24 production (HIV-1IIIB infection of MT-2 cells); assay type: cell-based; conditions: fourth day, p24 ELISA
Method: Experiment 1.2: Inhibition of HIV-1IIIB Infection
After 1 h, half of the culture medium was changed and replaced by fresh medium (with/without Lipid-conjugate) and after 24 h, the second half of the culture medium was changed and replaced by fresh medium (with/without Lipid-conjugate). On the fourth day after incubation at 37° C., 100 μl of culture supernatants were collected from each well and an equal volume of fresh medium was added to the wells. The collected supernatants were mixed with an equal volume of 5% (v/v) Triton X-100 and assayed for p24 antigen using an ELISA kit from Coulter Immunology (Hialeah, Fla.).

[3] = test system: HIV-1IIIB-infected H9 cells and uninfected MT-2 cells; experiment: Inhibition of fusion between HIV-infected and uninfected cells; assay type: cell-based; conditions: for IC50 (mean ± SD), inhibition of fusion / IC90 (mean ± SD), inhibition of fusion: H9/HIV-1 IIIB + MT-2 cells, 2 h; for IC50 / IC90: Table 1.4
Method: In this assay, HIV-1IIIB-infected H9 cells were labeled with BCECF (2′,7′-bis(2-carboxyethyl)-5-6-carboxyfluorescein-acetoxymethyl-ester, Molecular Probes, Eugene, Oreg.) according to the manufacturer's instructions. BCECF-labeled H9/HIV-1 IIIB cells (10^4) were mixed with 1×10^5 uninfected MT-2 cells. After incubation in a 96-well plate at 37° C. for 2 h, the fused and unfused labeled cells were counted under an inverted fluorescence microscope at ×160 magnification. At least 200 BCECF-labeled cells were counted and the proportion of fused cells was determined Fusion tests were carried out in the presence and absence of graded quantities of the tested Lipid-conjugates. […] The IC50 represents the concentration of a drug that is required to achieve 50% inhibition. Similarly, the IC90 represents the concentration of a drug that is required to achieve 90% inhibition.

[4] = biological target: V3 (third variable) domain of the HIV-1 envelope glycoprotein gp120; experiment: V3 antibody binding (ELISA); parameters: species or system human immunodeficiency virus type 1 (HIV-1); conditions: standard ELISA
Method: V3 antibody binding is an assay that uses an antibody that binds to the V3 (third variable) domain of the human immunodeficiency virus type 1 (HIV-1) envelope glycoprotein gp120. Anti-V3 domain antibodies may provide an indicator of the presence and amount of HIV. V3 antibody binding was determined by standard ELISA.

[5] = test system: mice; experiment: Acute (7 day) toxicity test; assay type: in vivo; conditions: for Body weight (g) Final / Hematocrit % / RBC × 10^6 / WBC × 10^3: 7 day; for Body weight (g) Final / Hematocrit % / RBC × 10^6 / WBC × 10^3 / Body weight (g) Start: mean ± SEM; for toxicity: mortality rate, body weight, blood count, hematocrit, internal organ histology: mice, one week after a single i.p. dose of 1000, 500 or 200 mg/kg, versus untreated mice
Method: […] Mortality rate, body weight, blood count (red and white cells), hematocrit, and internal organ histology after sacrifice were assessed. These parameters were compared in Lipid-conjugate-treated and in control, untreated mice.

[6] = test system: Punta Toro virus; assay type: cell-based, strain Adames
[7] = test system: Respiratory syncytial virus; assay type: cell-based, strain A2
[8] = test system: Respiratory syncytial virus; assay type: cell-based, strain A2; remark: listed apart in the source
[9] = test system: Influenza A (H1N1 strain) virus; assay type: cell-based, Influenza type A, A/New Caledonia/20/99 (H1N1); conditions: high concentration, Neutral Red Uptake Assay
[10] = test system: Influenza A (H3N2 strain) virus; assay type: cell-based, Influenza type A, A/Panama/2007/99 (H3N2)
[11] = test system: Influenza A (H3N2 strain) virus; assay type: cell-based, Influenza type A, A/Panama/2007/99 (H3N2); conditions: high concentration, Neutral Red Uptake Assay
[12] = test system: Influenza B virus; assay type: cell-based, Influenza type B, B/Hong Kong/330/02; conditions: high concentration; Visual Observation Assay; Influenza B
[13] = test system: Influenza B virus; assay type: cell-based, Influenza type B, B/Hong Kong/330/02; conditions: high concentration, Neutral Red Uptake Assay
[14] = test system: Guinea pig tracheal rings; experiment: Inhibition of tracheal ring contraction; conditions: stimulant Histamine (20 μM); Lipid-conjugate 15 μM
Method: A muscle preparation (tracheal rings) was isolated from rats (Experiments 3.1-3.3) and from guinea pigs (Experiments 3.4-3.5). Muscle contraction was measured by attachment of the muscle to a pressure transducer, which works much like a spring. Administration of asthmatogenic substances such as endothelin-1 (ET) and acetylcholine (AcCh) induces muscle contraction. Endothelins are released upon vascular endothelial injury, and they activate macrophages and act as strong chemo-attractants for circulating monocytes. Endothelins affect vascular smooth muscle fibroblast proliferation; help regulate vascular, airway, and intestinal smooth muscle tone; increase the activity of bone alkaline phosphatase; stimulate release of atrial natriuretic peptide (ANP) from atrial cardiocytes; inhibit the release of renin from glomeruli and modulate norepinephrine at sympathetic nerve termini. Opposing vasomotor effects are regulated through the binding of distinct endothelin receptors for vasoconstriction and vasodilation. Endothelins have been linked to atherosclerosis and various cardiovascular disease states. ET-1 is important in congestive heart failure, renal failure, pulmonary hypertension, hyperlipidemia and metastatic prostate cancer. On the other hand, AcCh is one of the three main receptors on the bronchi of the lungs, which are basically tubes with muscular walls. Stimulation of bronchial AcCh receptor induces muscle contraction and decreased airflow through the bronchi. Thus, ET and AcCh were used to experimentally induce muscle contraction in the lungs as a model of obstructive respiratory disorders.
Experiment 3.4: Guinea pig tracheal rings (in a linear array), immersed in a ringer bath, were connected to an apparatus measuring the length of the ring chain. […] Human airways have both Histamine (H)-1 and H2 receptors. H1 receptors, which mediate bronchoconstriction, predominate. Histamine application in experimental models produces signs and symptoms of asthma, such as narrowing of the airways, mucus secretion, wheezing, and coughing.

Substance: dipalmitoyl-PE conjugated to HA [Compound XXII]
- HIV infectivity [1]: prevent HIV infection of cells
- IC50 [2]: 3.11 µM
- IC50 (mean ± SD), inhibition of p24 production [2]: 207.0 ± 18.0 µg/mL
- IC90 [2]: 5.76 µM
- IC90 (mean ± SD), inhibition of p24 production [2]: 384.3 ± 79.3 µg/mL
- IC50 (mean ± SD), inhibition of fusion [3]: >500 µg/mL
- IC90 (mean ± SD), inhibition of fusion [3]: >500 µg/mL
- IC50 [3]: > 7.5 µM
- IC90 [3]: > 7.5 µM
- IC50 [4]: 45 µM
- Body weight (g) Final ([5]; 250 mg/kg body weight): 23.1 ± 0.6 g
- Hematocrit % ([5]; 250 mg/kg body weight): 43.3 ± 0.7%
- RBC × 10^6 ([5]; 250 mg/kg body weight): 11.4 ± 0.1 × 10^6
- WBC × 10^3 ([5]; 250 mg/kg body weight): 7.7 ± 0.2 × 10^3
- Body weight (g) Start ([5]; 250 mg/kg body weight): 22.1 ± 0.4 g
- Body weight (g) Final ([5]; 500 mg/kg body weight): 22.3 ± 0.4 g
- Hematocrit % ([5]; 500 mg/kg body weight): 44.7 ± 2.3%
- RBC × 10^6 ([5]; 500 mg/kg body weight): 11.5 ± 0.3 × 10^6
- WBC × 10^3 ([5]; 500 mg/kg body weight): 8.1 ± 1.3 × 10^3
- Body weight (g) Start ([5]; 500 mg/kg body weight): 21.4 ± 0.3 g
- Body weight (g) Final ([5]; 1000 mg/kg body weight): 22.1 ± 0.2 g
- Hematocrit % ([5]; 1000 mg/kg body weight): 40.3 ± 0.7%
- RBC × 10^6 ([5]; 1000 mg/kg body weight): 10.9 ± 0.4 × 10^6
- WBC × 10^3 ([5]; 1000 mg/kg body weight): 7.4 ± 0.6 × 10^3
- Body weight (g) Start ([5]; 1000 mg/kg body weight): 21.7 ± 0.2 g
- toxicity: mortality rate, body weight, blood count, hematocrit, internal organ histology [5]: did not alter the parameters

Substance: dipalmitoyl-phosphatidyl-ethanolamine conjugated to heparin [Compound XXIV]
- HIV infectivity [1]: prevent HIV infection of cells
- IC50 [2]: 0.7 µM
- IC50 (mean ± SD), inhibition of p24 production [2]: 10.0 ± 2.3 µg/mL
- IC90 [2]: 1.35 µM
- IC90 (mean ± SD), inhibition of p24 production [2]: 19.3 ± 4.5 µg/mL
- IC50 (mean ± SD), inhibition of fusion [3]: 7.9 ± 1.3 µg/mL
- IC90 (mean ± SD), inhibition of fusion [3]: 15.3 ± 3.9 µg/mL
- IC50 [3]: 0.55 µM
- IC90 [3]: 1.07 µM
- IC50 [4]: 140 µM
- SI (IC50/EC50) [6]: 0
- EC50 ([6]; low concentrations, Neutral Red Uptake Assay, Punta Toro A): >100 µg/mL
- EC50 [7]: 4 µg/mL
- EC50 ([8]; low concentrations, Neutral Red Uptake Assay, Respiratory Syncytial A): >100 µg/mL
- activity vs RSV by neutral red assay ([8]; lower range of doses): not active
- EC50 [9]: 1000 µg/mL
- SI (IC50/EC50) [10]: 2.9 and 2
- EC50 ([10]; high concentration, Visual Observation Assay, Influenza A (H3N2 strain)): 200 µg/mL
- EC50 [11]: 900 µg/mL
- EC50 [12]: 350 µg/mL
- EC50 [13]: 450 µg/mL
- % Inhibition of tracheal ring contraction [14]: 56 ± 0.05%
- toxicity: mortality rate, body weight, blood count, hematocrit, internal organ histology [5]: did not alter the parameters
